Experimental data as given in ChEMBL document CHEMBL1151630, “Antineoplastic agents, 103. The isolation and structure of hypoestestatins 1 and 2 from the East African Hypoëstes verticillaris” (1984).

Test system: P388
Test: Cytotoxicity against mouse P388 cells
Type: functional

Compound: COc1ccc2c3c(c4cc(OC)c(OC)cc4c2c1)[C@@H](O)[C@@H]1CCCN1C3 [HYPOESTESTATIN 2]
- ED50: 4 ×10⁻⁵ ug/ml
